The target of test [1] is Human norepinephrine transporter (NET) (Homo sapiens, UniProt P23975). Kind of test: Binding assay to human norepinephrine transporter (NET), [3H]-Nisoxetin. The following applies: human NET enriched membranes, 5 nM [3H]-Nisoxetin; read-out: Ki (nM) NET Hum. The method, then:
Binding Assay to Human Norepinephrine Transporter (NET).
Human norepinephrine transporter (NET) enriched membranes (5 μg) were incubated with 5 nM of radiolabeled [3H]-Nisoxetin in assay buffer containing 50 mM Tris-HCl, 120 mM NaCl, 5 mM KCl, pH 7.4.
NSB (non specific binding) was measured by adding 1 μM. After 60 min incubation at 4° C., binding reaction was terminated by filtering through Multiscreen GF/C (Millipore) presoaked in 0.5% polyethyleneimine in Vacuum Manifold Station, followed by 3 washes with ice-cold filtration buffer containing 50 mM Tris-HCl, 0.9% NaCl, pH 7.4. Filter plates were dried at 60° C. for 1 hour and 30 μl of scintillation cocktail were added to each well before radioactivity reading.

Test [2] has as its target Human α2δ-1 subunit of Cav2.2 calcium channel (Homo sapiens, UniProt P54289). The test is described as follows: Binding assay to human α2δ-1 subunit of Cav2.2 calcium channel, [3H]-Gabapentin. The following applies: human α2δ-1 enriched membranes, 15 nM [3H]-Gabapentin; read-out: Ki (nM) alpha2delta Hum. How it is done:
Binding Assay to Human α2δ-1 Subunit of Cav2.2 Calcium Channel.
Human α2δ-1 enriched membranes (2.5 μg) were incubated with 15 nM of radiolabeled [3H]-Gabapentin in assay buffer containing Hepes-KOH 10 mM, pH 7.4.
NSB (non specific binding) was measured by adding 10 μM pregabalin. After 60 min incubation at 27° C., binding reaction was terminated by filtering through Multiscreen GF/C (Millipore) presoaked in 0.5% polyethyleneimine in Vacuum Manifold Station, followed by 3 washes with ice-cold filtration buffer containing 50 mM Tris-HCl, pH 7.4.
Filter plates were dried at 60° C. for 1 hour and 30 μl of scintillation cocktail were added to each well before radioactivity reading.
Readings were performed in a Trilux 1450 Microbeta radioactive counter (Perkin Elmer).

Counter-ions that a name gives are not always drawn.

Sequence of Human α2δ-1 subunit of Cav2.2 calcium channel (P54289 25-1103): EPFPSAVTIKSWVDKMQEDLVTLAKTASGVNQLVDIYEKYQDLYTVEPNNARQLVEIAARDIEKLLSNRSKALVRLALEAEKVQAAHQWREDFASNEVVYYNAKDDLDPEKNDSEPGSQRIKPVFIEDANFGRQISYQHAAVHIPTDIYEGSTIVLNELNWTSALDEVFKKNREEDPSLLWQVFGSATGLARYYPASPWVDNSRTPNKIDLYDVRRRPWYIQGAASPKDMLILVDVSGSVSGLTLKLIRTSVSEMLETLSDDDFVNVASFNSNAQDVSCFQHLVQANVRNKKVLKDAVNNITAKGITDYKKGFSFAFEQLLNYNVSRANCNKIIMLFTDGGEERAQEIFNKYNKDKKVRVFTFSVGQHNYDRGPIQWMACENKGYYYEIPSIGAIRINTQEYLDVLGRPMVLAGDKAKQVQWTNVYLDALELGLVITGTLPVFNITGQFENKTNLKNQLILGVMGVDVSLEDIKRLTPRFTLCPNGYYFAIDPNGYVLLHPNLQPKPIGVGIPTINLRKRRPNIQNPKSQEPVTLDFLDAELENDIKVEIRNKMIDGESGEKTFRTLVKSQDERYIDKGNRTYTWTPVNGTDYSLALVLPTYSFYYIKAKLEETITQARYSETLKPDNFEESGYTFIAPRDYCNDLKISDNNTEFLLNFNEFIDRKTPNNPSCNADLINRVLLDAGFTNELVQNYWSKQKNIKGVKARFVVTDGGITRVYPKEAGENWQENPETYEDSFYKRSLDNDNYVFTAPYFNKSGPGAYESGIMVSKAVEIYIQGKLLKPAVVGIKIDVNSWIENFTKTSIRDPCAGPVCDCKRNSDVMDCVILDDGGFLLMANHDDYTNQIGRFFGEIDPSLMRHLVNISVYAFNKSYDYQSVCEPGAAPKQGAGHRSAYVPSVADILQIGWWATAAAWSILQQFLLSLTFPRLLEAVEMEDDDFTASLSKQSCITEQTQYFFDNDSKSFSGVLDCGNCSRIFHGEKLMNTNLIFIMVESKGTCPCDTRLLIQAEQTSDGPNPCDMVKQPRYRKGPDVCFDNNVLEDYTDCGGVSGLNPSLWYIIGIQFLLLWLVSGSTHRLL
Sequence of Human norepinephrine transporter (NET) (P23975 whole entry): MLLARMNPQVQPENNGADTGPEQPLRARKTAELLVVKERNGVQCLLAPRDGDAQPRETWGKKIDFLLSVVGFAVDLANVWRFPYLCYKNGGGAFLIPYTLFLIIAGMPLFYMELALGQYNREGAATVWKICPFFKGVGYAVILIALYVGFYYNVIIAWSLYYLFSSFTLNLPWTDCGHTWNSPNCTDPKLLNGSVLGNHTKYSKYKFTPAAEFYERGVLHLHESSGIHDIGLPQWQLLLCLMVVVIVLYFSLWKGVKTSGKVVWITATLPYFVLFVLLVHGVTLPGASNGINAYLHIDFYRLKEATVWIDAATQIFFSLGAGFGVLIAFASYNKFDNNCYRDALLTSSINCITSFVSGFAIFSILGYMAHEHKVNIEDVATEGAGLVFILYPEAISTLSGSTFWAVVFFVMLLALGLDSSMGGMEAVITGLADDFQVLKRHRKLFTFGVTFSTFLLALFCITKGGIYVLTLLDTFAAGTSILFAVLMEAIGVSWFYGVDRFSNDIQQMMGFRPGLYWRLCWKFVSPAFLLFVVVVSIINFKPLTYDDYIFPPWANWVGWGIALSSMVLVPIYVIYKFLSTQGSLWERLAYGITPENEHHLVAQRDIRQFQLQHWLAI

As for `CNCC[C@H](c1ccc(Cl)s1)N1CCc2ncccc21` [Example 41, (R)-3-(5-Chlorothiophen-2-yl)-3-(2,3-dihydro-1H-pyrrolo[3,2-b]pyridin-1-yl)-N-methylpropan-1-amine], the Ki was over 1000 nM in test [1] and 500 to 3000 nM in test [2].
The matching figures for `CNCC[C@@H](c1ccc(C)s1)N1CCc2ncccc21` [Example 45, (S)-3-(2,3-Dihydro-1H-pyrrolo[3,2-b]pyridin-1-yl)-N-methyl-3-(5-methylthiophen-2-yl)propan-1-amine]: over 1000 nM and 500 to 3000 nM.
The matching figures for `CNCC[C@@H](c1ccsc1)N1CCc2nc(C(C)C)ccc21` [Example 47, (S)-3-(5-Isopropyl-2,3-dihydro-1H-pyrrolo[3,2-b]pyridin-1-yl)-N-methyl-3-(thiophen-3-yl)propan-1-amine]: over 1000 nM and 500 to 3000 nM.
The matching figures for `CNCC[C@H](c1ccsc1)N1CC(C)(C)c2ncc(F)cc21` [Example 87, (R)-3-(6-Fluoro-3,3-dimethyl-2,3-dihydro-1H-pyrrolo[3,2-b]pyridin-1-yl)-N-methyl-3-(thiophen-3-yl)propan-1-amine]: over 1000 nM and 100 to 500 nM.
`CNCC[C@@H](c1ccsc1)N1CCc2ncc(C)cc21` [Example 102, (S)—N-methyl-3-(6-methyl-2,3-dihydro-1H-pyrrolo[3,2-b]pyridin-1-yl)-3-(thiophen-3-yl)propan-1-amine]: the Ki was over 1000 nM in test [1] and 500 to 3000 nM in test [2].
The matching figures for `CNCCC(c1ccsc1)N1CCc2cnccc21` (stereo not drawn) [Example 74, 3-(2,3-Dihydro-1H-pyrrolo[3,2-c]pyridin-1-yl)-N-methyl-3-(thiophen-3-yl)propan-1-amine]: over 1000 nM and 500 to 3000 nM.
The matching figures for `CNCCC(c1cccs1)N1CC(C)(C)c2ccccc21` (stereo not drawn) [Example 93, 3-(3,3-Dimethylindolin-1-yl)-N-methyl-3-(thiophen-2-yl)propan-1-amine]: under 100 nM and 500 to 3000 nM.
The matching figures for `CNCC[C@@H](c1ccsc1)N1CC(C)(C)c2nc(C)ccc21` [Example 59, (S)-N-methyl-3-(thiophen-3-yl)-3-(3,3,5-trimethyl-2,3-dihydro-1H-pyrrolo[3,2-b]pyridin-1-yl)propan-1-amine]: 100 to 500 nM and 100 to 500 nM.
In the case of `CNCC[C@H](c1ccsc1)N1CC(C)(C)c2nc(C)ccc21` [Example 58, (R)-N-methyl-3-(thiophen-3-yl)-3-(3,3,5-trimethyl-2,3-dihydro-1H-pyrrolo[3,2-b]pyridin-1-yl)propan-1-amine], the Ki in test [1] is over 1000 nM; in test [2], 100 to 500 nM.
The matching figures for `CNCC[C@@H](c1cccs1)N1CC(C)(C)c2nc(C)ccc21` [Example 35, (S)-N-methyl-3-(thiophen-2-yl)-3-(3,3,5-trimethyl-2,3-dihydro-1H-pyrrolo[3,2-b]pyridin-1-yl)propan-1-amine]: under 100 nM and 100 to 500 nM.
The matching figures for `CNCC[C@H](c1ccsc1)N1CCc2nc(C)ccc21` [Example 62, (R)—N-methyl-3-(5-methyl-2,3-dihydro-1H-pyrrolo[3,2-b]pyridin-1-yl)-3-(thiophen-3-yl)propan-1-amine]: over 1000 nM and 500 to 3000 nM.
The matching figures for `CCc1cnc2c(c1)N([C@H](CCNC)c1cccs1)CC2` [Example 32, (R)-3-(6-Ethyl-2,3-dihydro-1H-pyrrolo[3,2-b]pyridin-1-yl)-N-methyl-3-(thiophen-2-yl)propan-1-amine]: 100 to 500 nM and 100 to 500 nM.
Take `CNCC[C@@H](c1cccs1)N1CCc2ncc(OC)cc21` [Example 31, (S)-3-(6-Methoxy-2,3-dihydro-1H-pyrrolo[3,2-b]pyridin-1-yl)-N-methyl-3-(thiophen-2-yl)propan-1-amine]: the figures for the Ki in test [1] and in test [2] were 500 to 1000 nM and at least 3000 nM, respectively.
The matching figures for `CNCCC(c1cccs1)N1CCc2c(OC)cccc21` (stereo not drawn) [Example 69, 3-(4-Methoxyindolin-1-yl)-N-methyl-3-(thiophen-2-yl)propan-1-amine]: under 100 nM and at least 3000 nM.
The matching figures for `CNCC[C@H](c1cccs1)N1CCc2nc(C(C)C)ccc21` [Example 48, (R)-3-(5-Isopropyl-2,3-dihydro-1H-pyrrolo[3,2-b]pyridin-1-yl)-N-methyl-3-(thiophen-2-yl)propan-1-amine]: over 1000 nM and 500 to 3000 nM.
The matching figures for `CNCCC(c1cccs1)N1CCCc2ccccc21` (stereo not drawn) [Example 4, 3-(3,4-Dihydroquinolin-1(2H)-yl)-N-methyl-3-(thiophen-2-yl)propan-1-amine]: 100 to 500 nM and at least 3000 nM.
Consider `CCNCC[C@H](c1ccsc1)N1CCc2ncc(F)cc21` [Example 91, (R)-N-ethyl-3-(6-fluoro-2,3-dihydro-1H-pyrrolo[3,2-b]pyridin-1-yl)-3-(thiophen-3-yl)propan-1-amine], for which the Ki in test [1] was over 1000 nM; in test [2], 500 to 3000 nM.
Consider `CNCCC(c1cccs1)N1CCc2ccc(C#N)cc21` (stereo not drawn) [Example 94, 1-(3-(Methylamino)-1-(thiophen-2-yl)propyl)indoline-6-carbonitrile], for which the Ki is over 1000 nM in test [1] and 100 to 500 nM in test [2].
The matching figures for `CNCC[C@H](c1ccsc1)N1CC(C)(C)c2ncc(C)cc21` [Example 60, (R)-N-methyl-3-(thiophen-3-yl)-3-(3,3,6-trimethyl-2,3-dihydro-1H-pyrrolo[3,2-b]pyridin-1-yl)propan-1-amine]: over 1000 nM and 100 to 500 nM.
The matching figures for `CNCCC(c1ccc(F)s1)N1CCc2ncccc21` (stereo not drawn) [Example 6, 3-(2,3-Dihydro-1H-pyrrolo[3,2-b]pyridin-1-yl)-3-(5-fluorothiophen-2-yl)-N-methylpropan-1-amine]: 500 to 1000 nM and 500 to 3000 nM.
As for `CNCC[C@@H](c1ccsc1)N1CC(C)(C)c2nc(C(F)(F)F)ccc21` [Example 107, (S)-3-(3,3-Dimethyl-5-(trifluoromethyl)-2,3-dihydro-1H-pyrrolo[3,2-b]pyridin-1-yl)-N-methyl-3-(thiophen-3-yl)propan-1-amine], the Ki in test [1] and in test [2] was 100 to 500 nM throughout.
Regarding `CNCC[C@@H](c1ccsc1)N1CC(C)(C)c2ncc(C)cc21` [Example 61, (S)-N-methyl-3-(thiophen-3-yl)-3-(3,3,6-trimethyl-2,3-dihydro-1H-pyrrolo[3,2-b]pyridin-1-yl)propan-1-amine], the Ki in test [1] is over 1000 nM; in test [2], 500 to 3000 nM.
Take `CNCC[C@H](c1ccsc1)N1CCc2ncc(C3CC3)cc21` [Example 52, (R)-3-(6-Cyclopropyl-2,3-dihydro-1H-pyrrolo[3,2-b]pyridin-1-yl)-N-methyl-3-(thiophen-3-yl)propan-1-amine]: the results for the Ki in test [1] and in test [2] were 500 to 1000 nM and under 100 nM, respectively.
The matching figures for `CNCC[C@H](c1ccc(F)s1)N1CCc2ncccc21` [Example 18, (R)-3-(2,3-Dihydro-1H-pyrrolo[3,2-b]pyridin-1-yl)-3-(5-fluorothiophen-2-yl)-N-methylpropan-1-amine]: 500 to 1000 nM and 500 to 3000 nM.
The matching figures for `CNCCC(c1ccsc1)N1CCc2ncc(C)cc21` (stereo not drawn) [Example 14, N-methyl-3-(6-methyl-2,3-dihydro-1H-pyrrolo[3,2-b]pyridin-1-yl)-3-(thiophen-3-yl)propan-1-amine]: 500 to 1000 nM and 100 to 500 nM.
`CNCCC(c1ccccc1)N1CCc2ncccc21` (stereo not drawn) [Example 7, 3-(2,3-Dihydro-1H-pyrrolo[3,2-b]pyridin-1-yl)-N-methyl-3-phenylpropan-1-amine]: the Ki in test [1] is 500 to 1000 nM; in test [2], at least 3000 nM.
The matching figures for `CNCC[C@H](c1cccs1)N1CC(C)(C)c2ncccc21` [Example 20, (R)-3-(3,3-Dimethyl-2,3-dihydro-1H-pyrrolo[3,2-b]pyridin-1-yl)-N-methyl-3-(thiophen-2-yl)propan-1-amine]: over 1000 nM and 100 to 500 nM.
As for `CNCC[C@H](c1ccsc1)N1CC(C)(C)c2nc(C(F)(F)F)ccc21` (racemic) [Example 79, 3-(3,3-Dimethyl-5-(trifluoromethyl)-2,3-dihydro-1H-pyrrolo[3,2-b]pyridin-1-yl)-N-methyl-3-(thiophen-3-yl)propan-1-amine], the figures for the Ki in test [1] and in test [2] were over 1000 nM and 100 to 500 nM, respectively.
The matching figures for `CNCCC(c1ccsc1)N1CC(C)(C)c2nc(C#N)ccc21` (stereo not drawn) [Example 104, 3,3-Dimethyl-1-(3-(methylamino)-1-(thiophen-3-yl)propyl)-2,3-dihydro-1H-pyrrolo[3,2-b]pyridine-5-carbonitrile Hydrochloride]: over 1000 nM and 100 to 500 nM.
The matching figures for `CNCC[C@H](c1ccc(C)s1)N1CCc2ncccc21` [Example 44, (R)-3-(2,3-Dihydro-1H-pyrrolo[3,2-b]pyridin-1-yl)-N-methyl-3-(5-methylthiophen-2-yl)propan-1-amine]: over 1000 nM and 500 to 3000 nM.

The values above are taken from patent US20200207759A1, “NEW PROPANAMINE DERIVATIVES FOR TREATING PAIN AND PAIN RELATED CONDITIONS” (ESTEVE PHARMACEUTICALS, S.A., priority 2017, published 2020).
